Reference: US9598418B2, “Substituted phthalazin-1 (2H)-one derivatives as selective inhibitors of poly (ADP-ribose) polymerase-1” (CADILA HEALTHCARE LIMITED, priority 2012, dated 2017)

Key:
[1] = target: T1, PARP-1 (Homo sapiens, UniProt P09874); experiment: PARP-1 inhibitory activity, HT universal colorimetric PARP assay kit (Trevigen); format: biochemical; conditions: estimation as calculated from a 4 point dose response curve; read-out: PARP-1 activity in vitro IC50
T1 construct: purchased Trevigen
T1 sequence (P09874 whole entry): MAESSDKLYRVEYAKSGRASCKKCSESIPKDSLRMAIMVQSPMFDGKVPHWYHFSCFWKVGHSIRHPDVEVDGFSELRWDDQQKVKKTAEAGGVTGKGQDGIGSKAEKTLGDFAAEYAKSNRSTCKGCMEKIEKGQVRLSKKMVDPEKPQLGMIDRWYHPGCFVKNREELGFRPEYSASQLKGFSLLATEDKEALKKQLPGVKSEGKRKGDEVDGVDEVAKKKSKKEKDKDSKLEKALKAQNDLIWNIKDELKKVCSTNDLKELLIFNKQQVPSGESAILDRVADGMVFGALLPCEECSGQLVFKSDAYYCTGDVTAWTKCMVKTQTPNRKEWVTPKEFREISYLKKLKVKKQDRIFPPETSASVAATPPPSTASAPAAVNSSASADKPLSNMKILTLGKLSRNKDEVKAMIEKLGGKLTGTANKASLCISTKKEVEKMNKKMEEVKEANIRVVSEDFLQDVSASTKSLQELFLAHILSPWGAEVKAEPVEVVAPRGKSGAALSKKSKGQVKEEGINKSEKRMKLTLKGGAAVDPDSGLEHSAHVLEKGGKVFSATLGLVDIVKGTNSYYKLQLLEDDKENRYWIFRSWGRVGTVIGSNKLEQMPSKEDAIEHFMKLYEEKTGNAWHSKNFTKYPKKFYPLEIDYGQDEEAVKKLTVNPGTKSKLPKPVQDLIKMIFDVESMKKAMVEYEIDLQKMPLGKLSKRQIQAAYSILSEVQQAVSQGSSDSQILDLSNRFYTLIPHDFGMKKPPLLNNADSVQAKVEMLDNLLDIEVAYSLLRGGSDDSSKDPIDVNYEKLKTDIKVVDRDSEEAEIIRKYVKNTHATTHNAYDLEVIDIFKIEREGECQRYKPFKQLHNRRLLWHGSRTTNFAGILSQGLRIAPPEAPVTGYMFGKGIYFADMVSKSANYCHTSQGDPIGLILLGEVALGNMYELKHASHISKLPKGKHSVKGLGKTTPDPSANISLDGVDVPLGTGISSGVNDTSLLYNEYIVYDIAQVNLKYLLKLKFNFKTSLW
Experimental: The compounds were tested for PARP-1 inhibitory activity by using HT universal colorimetric PARP assay kit obtained from Trevigen, following manufacturer's protocol.

[2] = tested on: SW620 colorectal tumor cells (xenograft tumors); experiment: In vivo antitumor efficacy in combination with temozolomide (TMZ) in an SW620 tumor model; set-up: species or system Female athymic nude mice; conditions: for Tumor growth delay: time to RTV4 treated minus control
Experimental: On basis of the in vitro data, the ability of selected compounds to potentiate the antitumor activity of the methylating chemotherapeutic agent, temozolomide, was evaluated in an SW 620 tumor model.
Animals bearing SW 620 xenograft tumors were treated with the compounds in combination with TMZ (50 mg/Kg, po) once daily for 5 consecutive days, after which the tumors were left to grow out.
Female athymic nude mice were used for antitumor in vivo studies. SW620 colorectal tumor cells (1×10^7 cells per animal) were implanted s.c. into one flank of each mouse. When tumors were palpable (10-12 days after implantation), animals were treated (n=6-8/group) with five daily doses of temozolomide administered per os as a suspension in 0.5% methyl cellulose at 50 mg/kg either alone or in combination with a five daily per os administrations of PARP inhibitor at different doses. Tumor growths were measured using two-dimensional caliper measurements. Tumor volume was calculated using the equation a^2×b/2, where a is the smallest measurement and b is the largest. Data are presented as median relative tumor volumes (RTV), defined as the calculated tumor volume divided by the calculated tumor volume on the initial day of treatment (day 0). Thus, on day 0, the RTV value is 1 and RTV4 is when the tumor is four times as large as its initial value. Control animals were treated with vehicle ([…] in methyl cellulose) alone tumor growth delay (TGD)=Time to RTV4 in treated group−time to RTV4 control.

[3] = compound 10 mg/kg, po + TMZ 50 mg/kg, once daily for 5 days, compound 45 min before TMZ
[4] = compound 10 mg/kg, po + TMZ 50 mg/kg, once daily for 5 days

In the case of Cn1cc2c(n1)CN(C(=O)c1cc(Cc3n[nH]c(=O)c4ccccc34)ccc1F)C2 [Compound 35, 4-(4-fluoro-3-(2-methyl-2,4,5,6-tetrahydropyrrolo[3,4-c]pyrazole-5-carbonyl)benzyl) phthalazin-1(2H)-one], the IC50 [1] is reported as 29.9 nM, the “Median time to RTV4” value [2, 3] is reported as 50 days and the “Tumor growth delay” value [2, 4] is reported as 40 days.

O=C(c1cc(Cc2n[nH]c(=O)c3ccccc23)ccc1F)N1Cc2cocc2C1 [Compound 20, 4-(3-(5,6-dihydro-4H-furo[3,4-c]pyrrole-5-carbonyl)-4-fluorobenzyl)phthalazin-1(2H)-one] was tested, and the IC50 [1] was 11.8 nM, the “Median time to RTV4” value ([2]; compound 50 mg/kg, po + TMZ 50 mg/kg, once daily for 5 days, compound 45 min before TMZ) was 43 days and the “Tumor growth delay” value ([2]; compound 50 mg/kg, po + TMZ 50 mg/kg, once daily for 5 days) was 33 days.

In the case of Cn1ncc2c1CN(C(=O)c1cc(Cc3n[nH]c(=O)c4ccccc34)ccc1F)C2 [Compound 36], the IC50 [1] is reported as 27.9 nM, the “Median time to RTV4” value [2, 3] is reported as 37 days and the “Tumor growth delay” value [2, 4] is reported as 27 days. For the same molecule, the “Median time to RTV4” value ([2]; compound 30 mg/kg, po + TMZ 50 mg/kg, once daily for 5 days, compound 45 min before TMZ) was 44 days, the “Tumor growth delay” value ([2]; compound 30 mg/kg, po + TMZ 50 mg/kg, once daily for 5 days) was 34 days and the “Median time to RTV4” value ([2]; compound 100 mg/kg, po + TMZ 50 mg/kg, once daily for 5 days, compound 45 min before TMZ) was 65 days. For the same molecule, the “Tumor growth delay” value ([2]; compound 100 mg/kg, po + TMZ 50 mg/kg, once daily for 5 days) was 55 days.

For Cn1nnc2c(C(N)=O)ncn2c1=O [Temozolomide, reference compound], the “Median time to RTV4” value ([2]; Temozolomide alone 50 mg/kg, po, once daily for 5 consecutive days) was 22 days and the “Tumor growth delay” value ([2]; Temozolomide alone 50 mg/kg, po, once daily for 5 days) was 12 days.

Work on CC(C)n1cc2c(n1)CN(C(=O)c1cc(Cc3n[nH]c(=O)c4ccccc34)ccc1F)C2 [Compound 55, 5-(2-fluoro-5-((4-oxo-3,4-dihydrophthalazin-1-yl)methyl)benzoyl)-2-isopropyl-2,4,5,6-tetrahydropyrrolo[3,4-c]pyrazol-2-ium hydrogensulfate] yielded an IC50 [1] of 13.2 nM.

For O=C(c1cc(Cc2n[nH]c(=O)c3ccccc23)ccc1F)N1CC2C(=O)N(Cc3ccccc3)C(=O)C2C1 (centres unmarked) [Compound 2, 2-benzyl-5-(2-fluoro-5-((4-oxo-3,4-dihydrophthalazin-1-yl)methyl)benzoyl) tetrahydropyrrolo[3,4-c]pyrrole-1,3(2H,3aH)-dione], the IC50 [1] was 8.41 nM.
